Assay results published in patent US20040002460A1, “Spheron components useful in determining compounds capable of treating symptoms of Alzheimer's disease, and treatments and animal models produced therefrom” (priority 2002, published 2004).

Assay: in vitro
Method: The spheron component peptides in phosphate buffered saline (PBS) were incubated alone and in combination into glioma cell cultures and neuroblastoma cell cultures. Controls of
Cryopreserved glioma and neuroblastoma cells were acquired from the American Type Culture Collection (ATCC), Virginia. Cells were thawed and diluted in suspension media and centrifuged at 700 rpm for 7 minutes at 4 C. Cell pellets then were resuspended in CACO-2 media and cultured in standard 75 or 175 cm^2 flasks at 37 C, 5% CO(2) until approximately confluent. The cells were then trypsinized and resuspended in CACO-2 media to achieve a final cell density of 1.5×10^5 cells/mL. 50 μL aliquots per sample were then added per well to 96 well plates.
For Experiment I, 50 μL of either PBS (phosphate buffered solution) (negative control), 100 μM tamoxifen in phosphate buffered saline PBS (positive control), or test article were added to each sample culture.
An MTT assay is a sensitive assay for the measurement of cell proliferation based upon the reduction of the tetrazolium salt 3,[4,5-dimetylthiazol-2-yl]-2,5-diphenyltetrazolium bromide (MTT). […] Plates were then agitated gently for 1 minute on a rotary shaker and the difference between emission absorbance of 570 nm and background absorbance of 650 nm was measured spectrophotometrically on an automated plate reader. […]

Question: For `CC/C(=C(\c1ccccc1)c1ccc(OCCN(C)C)cc1)c1ccccc1` [Tamoxifen, tamoxifen], which viability at 4 days, 100 µM is on record?
Answer: 63%
